Consider 44 compounds from patent publication US8969565B2, “Imidazo[1,2-b]pyridazine-based compounds, compositions comprising them, and methods of their use” (Lexicon Pharmaceuticals, Inc., priority 2012, dated 2015).

The target of this assay is T1, AAK1 (Homo sapiens, UniProt Q2M2I8).
T1 construct: HA; expressed in transfected cells; host or cells: HEK293F
The experiment in a line: HEK281 cell-based assay (phospho-mu2 Western blot in transfected HEK293F cells). The conditions noted are these: 3 hours incubation, read-out: CBA IC50. In a few lines:
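After 3 hours at 37° C. with compound (five 3-fold-spaced concentrations, DMEM+0.5% FBS), transiently transfected HEK293F cells expressing full-length human AAK1 and Flag-tagged mu2 were lysed. mu2 phosphorylation was read by anti-phospho-mu2 immunoblot, normalized against total mu2 by anti-Flag blot.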

T1 sequence (Q2M2I8 1-863 isoform Q2M2I8-2): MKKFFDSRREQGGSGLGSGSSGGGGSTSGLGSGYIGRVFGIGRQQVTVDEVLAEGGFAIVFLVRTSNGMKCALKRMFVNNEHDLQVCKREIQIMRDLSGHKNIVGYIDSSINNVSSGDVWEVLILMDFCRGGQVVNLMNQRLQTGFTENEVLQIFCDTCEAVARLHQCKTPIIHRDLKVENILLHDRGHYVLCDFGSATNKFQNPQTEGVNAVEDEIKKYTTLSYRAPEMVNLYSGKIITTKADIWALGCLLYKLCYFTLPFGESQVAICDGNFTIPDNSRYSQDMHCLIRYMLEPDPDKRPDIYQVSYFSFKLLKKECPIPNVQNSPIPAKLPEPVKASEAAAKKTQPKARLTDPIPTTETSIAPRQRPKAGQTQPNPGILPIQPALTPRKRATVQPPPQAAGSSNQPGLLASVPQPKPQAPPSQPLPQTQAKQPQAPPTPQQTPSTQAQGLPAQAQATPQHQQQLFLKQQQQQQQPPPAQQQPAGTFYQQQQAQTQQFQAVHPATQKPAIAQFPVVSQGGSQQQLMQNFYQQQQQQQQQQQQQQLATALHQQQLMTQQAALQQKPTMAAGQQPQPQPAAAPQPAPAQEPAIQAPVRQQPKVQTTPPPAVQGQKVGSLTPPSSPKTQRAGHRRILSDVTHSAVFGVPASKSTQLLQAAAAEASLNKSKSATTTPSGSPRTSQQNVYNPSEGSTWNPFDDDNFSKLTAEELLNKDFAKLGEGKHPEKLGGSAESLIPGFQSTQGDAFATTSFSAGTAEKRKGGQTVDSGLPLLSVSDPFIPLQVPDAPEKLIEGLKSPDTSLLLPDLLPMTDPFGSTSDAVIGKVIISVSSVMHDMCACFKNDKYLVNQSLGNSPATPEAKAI

Consider `CN(CCNc1ccc2ncc(-c3ccc(C#N)cc3)n2n1)C(=O)CC(C)(C)C` [N-(2-((3-(4-cyanophenyl)imidazo[1,2-b]pyridazin-6-yl)amino)ethyl)-N,3,3-trimethylbutanamide], for which the IC50 was not above 100 nM. For the compound `CN(CCNc1ccc2ncc(-c3ccc(C#N)cc3)n2n1)C(=O)C(C)(C)C` [N-(2-((3-(4-cyanophenyl)imidazo[1,2-b]pyridazin-6-yl)amino)ethyl)-N-methylpivalamide], the IC50 was not above 100 nM. For `COc1ncccc1-c1cnc2ccc(NCCOC3CCCC3)nn12` [N-(2-(cyclopentyloxy)ethyl)-3-(2-methoxypyridin-3-yl)imidazo[1,2-b]pyridazin-6-amine], the IC50 is not above 100 nM. The figure for `Fc1cnccc1-c1cnc2ccc(NCCOC3CCCC3)nn12` [N-(2-(cyclopentyloxy)ethyl)-3-(3-fluoropyridin-4-yl)imidazo[1,2-b]pyridazin-6-amine] is not above 100 nM; for `COc1cnccc1-c1cnc2ccc(NCCOC3CCCC3)nn12` [N-(2-(cyclopentyloxy)ethyl)-3-(3-methoxypyridin-4-yl)imidazo[1,2-b]pyridazin-6-amine] it is not above 1000 nM; for `c1cc(C2CCCN2)ccc1-c1cnc2ccc(NCCOC3CCCC3)nn12` (centres unmarked) [N-(2-(cyclopentyloxy)ethyl)-3-(4-(pyrrolidin-2-yl)phenyl)imidazo[1,2-b]pyridazin-6-amine] it is not above 100 nM. Consider `CCN(CC)CCNC(=O)c1ccc(-c2cnc3ccc(NCCOCC(C)C)nn23)cc1` [N-(2-(diethylamino)ethyl)-4-(6-((2-isobutoxyethyl)amino)imidazo[1,2-b]pyridazin-3-yl)benzamide], for which the IC50 is not above 100 nM. As for `CCN(CC)CCNC(=O)c1ccc(-c2cnc3ccc(NCCOC(C)C)nn23)cc1` [N-(2-(diethylamino)ethyl)-4-(6-((2-isopropoxyethyl)amino)imidazo[1,2-b]pyridazin-3-yl)benzamide], the IC50 is not above 100 nM. Take `CNCCNC(=O)c1ccc(-c2cnc3ccc(NCCCN(C)C(=O)C(C)(C)C)nn23)cc1` [N-(2-(methylamino)ethyl)-4-(6-((3-(N-methylpivalamido)propyl)amino)imidazo[1,2-b]pyridazin-3-yl)benzamide]: the IC50 is not above 1000 nM. Regarding `COc1cnccc1-c1cnc2ccc(NCCOC(C)(C)C)nn12` [N-(2-(tert-butoxy)ethyl)-3-(3-methoxypyridin-4-yl)imidazo[1,2-b]pyridazin-6-amine], the IC50 was not above 100 nM.

On to `CC(C)(C)OCCNc1ccc2ncc(-c3ccc(C4CCCN4)cc3)n2n1` (centres unmarked) [N-(2-(tert-butoxy)ethyl)-3-(4-(pyrrolidin-2-yl)phenyl)imidazo[1,2-b]pyridazin-6-amine], for which the IC50 is not above 100 nM. As to `CC(C)(C)CCNc1ccc2ncc(-c3ccc(C(=O)NCCN)cc3)n2n1` [N-(2-aminoethyl)-4-(6-((3,3-dimethylbutyl)amino)imidazo[1,2-b]pyridazin-3-yl)benzamide], the IC50 is not above 1000 nM. Then `CC(C)(C)OCCCNc1ccc2ncc(-c3ccc(C(=O)NCCN)cc3)n2n1` [N-(2-aminoethyl)-4-(6-((3-(tert-butoxy)propyl)amino)imidazo[1,2-b]pyridazin-3-yl)benzamide], with not above 1000 nM. For `NCCNC(=O)c1ccc(-c2cnc3ccc(NCCCc4ccccc4)nn23)cc1` [N-(2-aminoethyl)-4-(6-((3-phenylpropyl)amino)imidazo[1,2-b]pyridazin-3-yl)benzamide], the IC50 is not above 1000 nM. In the case of `CCCCNc1ccc2ncc(-c3ccc(C(=O)NCCN)c(F)c3)n2n1` [N-(2-aminoethyl)-4-(6-(butylamino)imidazo[1,2-b]pyridazin-3-yl)-2-fluorobenzamide], the IC50 is not above 100 nM.

In the case of `CCCCNc1ccc2ncc(-c3ccc(C(=O)NCCN)c(OC)c3)n2n1` [N-(2-aminoethyl)-4-(6-(butylamino)imidazo[1,2-b]pyridazin-3-yl)-2-methoxybenzamide], the IC50 is not above 1000 nM. In the case of `CCCCNc1ccc2ncc(-c3ccc(C(=O)NCCN)cc3F)n2n1` [N-(2-aminoethyl)-4-(6-(butylamino)imidazo[1,2-b]pyridazin-3-yl)-3-fluorobenzamide], the half-maximal inhibitory concentration (IC50) is not above 1000 nM. As for `CCCCNc1ccc2ncc(-c3ccc(C(=O)NCCN)cc3)n2n1` [N-(2-aminoethyl)-4-(6-(butylamino)imidazo[1,2-b]pyridazin-3-yl)benzamide], the IC50 was not above 1000 nM.

Regarding `CCCCNc1ccc2ncc(-c3ccc(C(=O)NCC(C)N)cc3)n2n1` (centres unmarked) [N-(2-aminopropyl)-4-(6-(butylamino)imidazo[1,2-b]pyridazin-3-yl)benzamide], the IC50 was not above 1000 nM. Consider `CCOc1ccccc1CCNc1ccc2ncc(-c3ccncc3OC)n2n1` [N-(2-ethoxyphenethyl)-3-(3-methoxypyridin-4-yl)imidazo[1,2-b]pyridazin-6-amine], for which the IC50 was not above 100 nM. The figure for `COc1ccccc1-c1cnc2ccc(NCCOCC(C)C)nn12` [N-(2-isobutoxyethyl)-3-(2-methoxyphenyl)imidazo[1,2-b]pyridazin-6-amine] is not above 1000 nM; for `COc1cnccc1-c1cnc2ccc(NCCOCC(C)C)nn12` [N-(2-isobutoxyethyl)-3-(3-methoxypyridin-4-yl)imidazo[1,2-b]pyridazin-6-amine] it is not above 100 nM; for `CC(C)COCCNc1ccc2ncc(-c3ccncc3)n2n1` [N-(2-isobutoxyethyl)-3-(pyridin-4-yl)imidazo[1,2-b]pyridazin-6-amine] it is not above 1000 nM. The figure for `CC(C)OCCNc1ccc2ncc(-c3cc[nH]n3)n2n1` [N-(2-isopropoxyethyl)-3-(1H-pyrazol-3-yl)imidazo[1,2-b]pyridazin-6-amine] is not above 1000 nM.

For `COc1cnccc1-c1cnc2ccc(NCCOC(C)C)nn12` [N-(2-isopropoxyethyl)-3-(3-methoxypyridin-4-yl)imidazo[1,2-b]pyridazin-6-amine], the IC50 was not above 10 nM. In the case of `CC(C)OCCNc1ccc2ncc(-c3ccc(C4CCCN4)cc3)n2n1` (centres unmarked) [N-(2-isopropoxyethyl)-3-(4-(pyrrolidin-2-yl)phenyl)imidazo[1,2-b]pyridazin-6-amine], the IC50 was not above 100 nM. Turning to `CC(C)OCCNc1ccc2ncc(-c3ccns3)n2n1` [N-(2-isopropoxyethyl)-3-(isothiazol-5-yl)imidazo[1,2-b]pyridazin-6-amine], the IC50 was not above 100 nM. The figure for `CC(C)OCCNc1ccc2ncc(-c3cscn3)n2n1` [N-(2-isopropoxyethyl)-3-(thiazol-4-yl)imidazo[1,2-b]pyridazin-6-amine] is not above 1000 nM; for `CNCCOCc1ccc(-c2cnc3ccc(NCCC(C)(C)C)nn23)cc1` [N-(3,3-dimethylbutyl)-3-(4-((2-(methylamino)ethoxy)methyl)phenyl)imidazo[1,2-b]pyridazin-6-amine] it is not above 100 nM. Take `CC(C)(C)CCNc1ccc2ncc(-c3ccc(C4CCCN4)cc3)n2n1` (centres unmarked) [N-(3,3-dimethylbutyl)-3-(4-(pyrrolidin-2-yl)phenyl)imidazo[1,2-b]pyridazin-6-amine]: the IC50 was not above 1000 nM. Then `CN(CCCNc1ccc2ncc(-c3ccc(CN)cc3)n2n1)C(=O)C(C)(C)C` [N-(3-((3-(4-(aminomethyl)phenyl)imidazo[1,2-b]pyridazin-6-yl)amino)propyl)-N-methylpivalamide], with not above 1000 nM; and `COc1cnccc1-c1cnc2ccc(NCCCOC(C)(C)C)nn12` [N-(3-(tert-butoxy)propyl)-3-(3-methoxypyridin-4-yl)imidazo[1,2-b]pyridazin-6-amine], with not above 1000 nM; and `CCCCNc1ccc2ncc(-c3ccc(C(=O)NCCCN)cc3)n2n1` [N-(3-aminopropyl)-4-(6-(butylamino)imidazo[1,2-b]pyridazin-3-yl)benzamide], with not above 1000 nM. In the case of `FCCCNc1ccc2ncc(-c3ccc(C4CCCN4)cc3)n2n1` (centres unmarked) [N-(3-fluoropropyl)-3-(4-(pyrrolidin-2-yl)phenyl)imidazo[1,2-b]pyridazin-6-amine], the IC50 is not above 100 nM.

On to `c1ccc(CCCNc2ccc3ncc(-c4ccc(C5CCCN5)cc4)n3n2)cc1` (centres unmarked) [N-(3-phenylpropyl)-3-(4-(pyrrolidin-2-yl)phenyl)imidazo[1,2-b]pyridazin-6-amine], for which the IC50 is not above 1000 nM. Take `CCCCNc1ccc2ncc(C(=O)Nc3ccc(OCCN)cc3)n2n1` [N-(4-(2-aminoethoxy)phenyl)-6-(butylamino)imidazo[1,2-b]pyridazine-3-carboxamide]: the IC50 was not above 1000 nM. With `CCCCNc1ccc2ncc(C(=O)Nc3ccc(CN)cc3)n2n1` [N-(4-(aminomethyl)phenyl)-6-(butylamino)imidazo[1,2-b]pyridazine-3-carboxamide], the IC50 was not above 1000 nM. As to `CCCCNc1ccc2ncc(-c3ccc(C(=O)N[C@@H]4CCCC[C@@H]4N)cc3)n2n1` [N-((1R,2S)-2-aminocyclohexyl)-4-(6-(butylamino)imidazo[1,2-b]pyridazin-3-yl)benzamide], the IC50 was not above 100 nM.

With `COc1cnccc1-c1cnc2ccc(NCC3CCCC3)nn12` [N-(cyclopentylmethyl)-3-(3-methoxypyridin-4-yl)imidazo[1,2-b]pyridazin-6-amine], the IC50 is not above 100 nM. As to `CCCCNc1ccc2ncc(-c3cc[nH]n3)n2n1` [N-butyl-3-(1H-pyrazol-3-yl)imidazo[1,2-b]pyridazin-6-amine], the IC50 is not above 100 nM.

`CCCCNc1ccc2ncc(-c3sc(C)nc3C)n2n1` [N-butyl-3-(2,4-dimethylthiazol-5-yl)imidazo[1,2-b]pyridazin-6-amine]: the IC50 was not above 100 nM.

For `CCCCNc1ccc2ncc(-c3ccncc3OC)n2n1` [N-butyl-3-(3-methoxypyridin-4-yl)imidazo[1,2-b]pyridazin-6-amine], the IC50 was not above 100 nM. Regarding `CCCCNc1ccc2ncc(-c3ccc(CNCCOC)cc3)n2n1` [N-butyl-3-(4-(((2-methoxyethyl)amino)methyl)phenyl)imidazo[1,2-b]pyridazin-6-amine], the IC50 was not above 1000 nM.

For `CCCCNc1ccc2ncc(-c3ccc(CNCC4CCCO4)cc3)n2n1` (centres unmarked) [N-butyl-3-(4-((((tetrahydrofuran-2-yl)methyl)amino)methyl)phenyl)imidazo[1,2-b]pyridazin-6-amine], the IC50 is not above 1000 nM.
